Results taken from US8859021B2, “Skin appearance through gene manipulation” (Sytheon, priority 2007, dated 2014).

What was measured:
[1] = test system: skin; conditions: in vivo
[2] = test system: EpiDerm tissues; conditions: retinol 10 μg/ml, Sytenol A 5 μg/ml, 2 days

C=C[C@@](C)(/C=C/c1ccc(O)cc1)CCC=C(C)C [Sytenol A, bakuchiol]
Primary skin irritation (edema or erythema) [1]: NON-PRIMARY IRRITANT
Laminins up-regulation by Sytenol A relative to retinol [2]: almost three-fold more than retinol
Lecithin retinol acyltransferase up-regulation by Sytenol A relative to retinol [2]: almost seven-fold higher than by retinol
Fold Change, ACTN1 Alpha-actinin-1 (Alpha-actinin cytoskeletal isoform) (Table 8) ([2]; vs 0.1% DMSO control): +2.70 fold
Fold Change, ACTN1 Alpha-actinin-1 (Alpha-actinin cytoskeletal isoform) (Table 9) ([2]; vs 0.1% DMSO control): +2.70 fold
Fold Change, ACTN4 Alpha-actinin-4(F-actin cross-linking protein) (Table 8) ([2]; vs 0.1% DMSO control): +3.13 fold
Fold Change, ACTN4 Alpha-actinin-4(F-actin cross-linking protein) (Table 9) ([2]; vs 0.1% DMSO control): +3.13 fold
Fold Change, AFAP1L2 Actin filament-associated protein 1-like 2 ([2]; vs 0.1% DMSO control): +3.84 fold
Fold Change, C16orf30 Claudin-like protein 24 ([2]; vs 0.1% DMSO control): No effect
Fold Change, CDH1 Epithelia-cadherin precursor (E-cadherin) (Table 7) ([2]; vs 0.1% DMSO control): +21.56 fold
Fold Change, CDH1 Epithelial-cadherin precursor (E-cadherin) E-Cad/CTF1 (Table 9) ([2]; vs 0.1% DMSO control): +21.56 fold
Fold Change, CDH3 Cadherin-3-precursor (P-cadherin) ([2]; vs 0.1% DMSO control): +7.47 fold
Fold Change, CDH19 Cadherin-19-precursor ([2]; vs 0.1% DMSO control): No effect
Fold Change, CDH24 Cadherin-24-precursor ([2]; vs 0.1% DMSO control): +2.28 fold
Fold Change, CDK5R1 Tau protein kinase II 23 kDa subunit (Cyclin-dependent kinase 5 activator 1 precursor (CDK5 activator 1)) ([2]; vs 0.1% DMSO control): +2.66 fold
Fold Change, CLDN4 Claudin-4 (Clostridium perfringens enterotoxin receptor) (CPE-R) ([2]; vs 0.1% DMSO control): +5.92 fold
Fold Change, CLDN5 Claudin-5 (Transmembrane protein deleted in VCFS) ([2]; vs 0.1% DMSO control): No effect
Fold Change, CLDN6 Claudin-6 (Skullin 2) ([2]; vs 0.1% DMSO control): No effect
Fold Change, CLDN7 Claudin-7 (CLDN-7) ([2]; vs 0.1% DMSO control): +46.09 fold
Fold Change, CLDN11 Claudin-11 (Oligodendrocyte-specific protein) ([2]; vs 0.1% DMSO control): −4.01 fold
Fold Change, CLDN12 Claudin-12 ([2]; vs 0.1% DMSO control): +2.00 fold
Fold Change, CLDN16 Claudin-16 (Paracellin-1) (PCLN-1) ([2]; vs 0.1% DMSO control): +11.62 fold
Fold Change, COL1A2 Collagen alpha-2 (I) chain precursor (Alpa-2 type I collagen) ([2]; vs 0.1% DMSO control): +1.85 fold
Fold Change, COL3A1 Collagen alpha-1 (III) chain precursor ([2]; vs 0.1% DMSO control): No effect
Fold Change, COL9A2 Collagen alpha-2 (IX) chain precursor ([2]; vs 0.1% DMSO control): +6.67 fold
Fold Change, COL9A3 Collagen alpha-3 (IX) chain precursor ([2]; vs 0.1% DMSO control): +5.76 fold
Fold Change, CTHRC1 Collagen triple helix repeat-containing protein 1 precursor ([2]; vs 0.1% DMSO control): −10.17 fold
Fold Change, CTNNAL1 Alpha-catenin-related protein (ACRP) (Table 8) ([2]; vs 0.1% DMSO control): No effect
Fold Change, CTNNAL1 Alpha-catenin-related protein (ACRP) (Table 9) ([2]; vs 0.1% DMSO control): No effect
Fold Change, CYP26B1 Cytochrome P450 26B1 (Retinoic acid-metabolizing cytochrome) ([2]; vs 0.1% DMSO control): −1.74 fold
Fold Change, Connective tissue growth factor precursor (Hypertrophic chondrocyte-specific protein 24) ([2]; vs 0.1% DMSO control): −2.56 fold
Fold Change, DHRS9 NADP-dependent retinol dehydrogenase/reductase ([2]; vs 0.1% DMSO control): +11.56 fold
Fold Change, DSC1 Desmocollin-1-precursor (DG2/DG3) ([2]; vs 0.1% DMSO control): −5.96 fold
Fold Change, DSC2 Desmocollin-2-precursor (Desmocollin-3) ([2]; vs 0.1% DMSO control): +4.68 fold
Fold Change, DSG1 Desmoglein-1-precursor (DG1) ([2]; vs 0.1% DMSO control): −2.26 fold
Fold Change, DSG2 Desmoglein-2-precursor ([2]; vs 0.1% DMSO control): +20.15 fold
Fold Change, DSG3 Desmoglein-3-precursor ([2]; vs 0.1% DMSO control): +4.25 fold
Fold Change, DSG4 Desmoglein-4-precursor ([2]; vs 0.1% DMSO control): +10.59 fold
Fold Change, ECM1 Extracellular matrix protein 1 precursor ([2]; vs 0.1% DMSO control): +2.00 fold
Fold Change, ECM2 Extracellular matrix protein 2 precursor ([2]; vs 0.1% DMSO control): +4.10 fold
Fold Change, ELA3B Elastase-3B precursor (Elastase IIIB) ([2]; vs 0.1% DMSO control): +6.58 fold
Fold Change, F11R Junctional adhesion molecule 1 (JAM-1) ([2]; vs 0.1% DMSO control): +8.92 fold
Fold Change, FLNB Actin-binding-like protein ([2]; vs 0.1% DMSO control): +5.87 fold
Fold Change, FLRT2 Fibronectin-like-domain-containing leucine-rich transmembrane protein 2 ([2]; vs 0.1% DMSO control): No effect
Fold Change, FLRT3 Fibronectin-like-domain-containing leucine-rich transmembrane protein 3 ([2]; vs 0.1% DMSO control): +6.18 fold
Fold Change, FNDC7 Fibronectin type III domain containing 7 ([2]; vs 0.1% DMSO control): +9.14 fold
Fold Change, Fibroblast growth factor 9 (HBGF-9) ([2]; vs 0.1% DMSO control): −2.34 fold
Fold Change, Fibroblast growth factor 23 precursor (FGF-23) (Tumor-derived hypophosphatemia-inducing factor) ([2]; vs 0.1% DMSO control): −3.01 fold
Fold Change, Fibroblast growth factor receptor 2 precursor (FGFR-2) ([2]; vs 0.1% DMSO control): +8.93 fold
Fold Change, Fibroblast growth factor-binding protein 1 precursor (FGF-BP1) ([2]; vs 0.1% DMSO control): +2.69 fold
Fold Change, GSN Gelsolin precursor (Actin-depolymerizing factor) (ADF) ([2]; vs 0.1% DMSO control): +3.19 fold
Fold Change, HAS2 Hyaluronan synthase 2 ([2]; vs 0.1% DMSO control): No effect
Fold Change, HAS3 Hyaluronan synthase 3 ([2]; vs 0.1% DMSO control): +19.29 fold
Fold Change, HS3ST1 Heparan sulfate 3-O-sulfotransferase 1 (Table 6) ([2]; vs 0.1% DMSO control): +24.91 fold
Fold Change, HS6ST1 Heparan sulfate 6-O-sulfotransferase 1 ([2]; vs 0.1% DMSO control): +1.79 fold
Fold Change, HYAL1 Hyaluronidase-1-precursor ([2]; vs 0.1% DMSO control): No effect
Fold Change, Heparin-binding EGF-like growth factor precursor (HB-EGF) ([2]; vs 0.1% DMSO control): +5.09 fold
Fold Change, IGSF1 Immunoglobulin superfamily, member 1 isoform 1 ([2]; vs 0.1% DMSO control): +2.81 fold
Fold Change, IGSF3 Immunoglobulin superfamily, member 3 isoform 2 ([2]; vs 0.1% DMSO control): +3.39 fold
Fold Change, ITG5 Integrin beta-5 precursor (Table 7) ([2]; vs 0.1% DMSO control): No effect
Fold Change, ITGA6 Integrin alpha-6 precursor ([2]; vs 0.1% DMSO control): +3.57 fold
Fold Change, ITGB2 Integrin beta-2-precursor ([2]; vs 0.1% DMSO control): −7.67 fold
Fold Change, ITGB4 Integrin beta-4 precursor (Table 7) ([2]; vs 0.1% DMSO control): +7.98 fold
Fold Change, ITGB6 Integrin beta-6-precursor (Table 7) ([2]; vs 0.1% DMSO control): +7.71 fold
Fold Change, ITGB8 Integrin beta-8 precursor (Table 3) ([2]; vs 0.1% DMSO control): +3.90 fold
Fold Change, ITGB8 Integrin beta-8 precursor (Table 7) ([2]; vs 0.1% DMSO control): +3.90 fold
Fold Change, Insulin growth factor-like family member 3 precursor (IGBP-3) ([2]; vs 0.1% DMSO control): −8.67 fold
Fold Change, Insulin growth factor-like family member 4 precursor (IGBP-4) ([2]; vs 0.1% DMSO control): +2.41 fold
